Results published in US20040147561A1, “Pyrid-2-one derivatives and methods of use” (priority 2002, published 2004).
Where a name gives a salt, the structure may show the parent alone.

Test: not given
Conditions: not given

Row | melting point | Compound
1 | 280 °C (dec.) | CCOC(=O)c1cc(-c2csc(-c3ccnc(NCc4cccnc4)c3)n2)c(=O)[nH]c1C [Example 47, Ethyl 2-methyl-6-oxo-5-(2-(2-((3-pyridinylmethyl)amino)-4-pyridinyl)-1,3-thiazol-4-yl)-1,6-dihydro-3-pyridin carboxylate]
2 | 260 °C (dec.) | CCOC(=O)c1cc(-c2csc(-c3ccnc(NCCNC(C)C)c3)n2)c(=O)[nH]c1C [Example 50, Ethyl 2-methyl-5-(2-(2-((2-((1-methylethyl)amino)ethyl)amino)-4-pyridinyl)-1,3-thiazol-4-yl)-6-oxo-1,6-dihydro-3-pyridinecarboxylate]
3 | 270 °C (dec.) | CCOC(=O)c1cc(-c2csc(-c3ccnc(NCCNC(C)=O)c3)n2)c(=O)[nH]c1C (as salt: HCl) [Example 58]
4 | 230 °C (dec.) | CCOC(=O)c1cc(-c2csc(-c3cccnc3)n2)c(=O)[nH]c1C [Example 39]
5 | 250 °C (dec.) | CCOC(=O)c1cc(-c2csc(-c3ccnc(Cl)c3)n2)c(=O)[nH]c1C [Example 40]
6 | > 260 °C | CCNCCNC(=O)c1cc(-c2csc(-c3ccnc(NCCNCC)c3)n2)c(=O)[nH]c1C [Example 66]
7 | 230 °C (dec.) | CCCCNc1cc(-c2nc(-c3cc(C(=O)OCC)c(C)[nH]c3=O)cs2)ccn1 (as salt: HCl) [Example 56, Ethyl 5-[2-(2-butylamino-pyridin-4-yl)-thiazol-4-yl]-2-methyl-6-oxo-1,6-dihydro-3-pyridinecarboxylate]
8 | > 260 °C | CCOC(=O)c1cc(-c2csc(-c3ccnc(N)c3)n2)c(=O)[nH]c1C [Example 65, Ethyl 2-methyl-6-oxo-5-(2-(2-(amino)-4-pyridinyl)-1,3-thiazol-4-yl)-1,6-dihydro-3-pyridinecarboxylate]
9 | 290 °C (dec.) | CCOC(=O)c1cc(-c2csc(-c3ccnc(NCc4ccccc4)c3)n2)c(=O)[nH]c1C [Example 48, Ethyl 2-methyl-6-oxo-5-(2-(2-((phenylmethyl)amino)-4-pyridinyl)-1,3-thiazol-4-yl)-1,6-dihydro-3-pyridinecarboxylate]
10 | > 260 °C | CCOC(=O)c1cc(-c2csc(-c3ccnc(NCC4CC4)c3)n2)c(=O)[nH]c1C (as salt: HCl) [Example 61, Ethyl 5-{2-[2-(cyclopropylmethyl-amino)-pyridin-4-yl]-thiazol-4-yl}-2-methyl-6-oxo-1,6-dihydro-3-pyridinecarboxylate]

Continued, molecule first:

Row | Compound | melting point
11 | CCOC(=O)c1cc(-c2csc(CS(=O)(=O)c3cccs3)n2)c(=O)[nH]c1C [Example 24, Ethyl 2-methyl-6-oxo-5-{2-[(2-thienylsulfonyl)methyl](1,3-thiazol-4-yl)}-1,6-dihydro-3-pyridinecarboxylate] | 300 °C (dec.)
12 | CCOC(=O)c1cc(-c2csc(CS(=O)(=O)Cc3cccc(C(F)(F)F)c3)n2)c(=O)[nH]c1C [Example 30] | 300 °C (dec.)
13 | CCOC(=O)c1cc(-c2csc(-c3ccnc(CC)c3)n2)c(=O)[nH]c1C [Example 29] | 270 °C (dec.)
14 | CCOC(=O)c1cc(-c2csc(-c3ccccc3)n2)c(=O)[nH]c1C [Example 33, Ethyl 2-methyl-6-oxo-5-{2-phenyl(1,3-thiazol-4-yl)}-1,6-dihydro-3-pyridinecarboxylate] | 260 °C (dec.)
15 | CCOC(=O)c1cc(-c2csc(-c3c(Cl)cccc3Cl)n2)c(=O)[nH]c1C [Example 35, Ethyl 5-[2-(2,6-dichlorophenyl)(1,3-thiazol-4-yl)]2-methyl-6-oxo-1,6-dihydro-3-pyridinecarboxylate] | 260 °C (dec.)

Test: Cell proliferation assay (BrdU incorporation)
Type: cell-based
Conditions: Homo sapiens, 48 h incubation, cell line not given, read-out: inhibited proliferation IC50
Experimental: Cell proliferation was measured using a colorimetric immunoassay (B/M Roche #164 7229), based on the measurement of pyrimidine analog BrdU incorporation during DNA synthesis in proliferating cells. Cells, e.g., human PC-3 prostate carconima cells, huFSF normal human foreskin fibroblast cells, HCT 116 human colon carcinoma cells or HT 29 human colon carcinoma cells, were cultured in a 96-well plate for 24 h, until a cell count of 3×10^3 to 6×10^3 cells per well in duplicate wells were achieved, in a well volume of 200 μL. The media was changed and 1 μL of 200× control inhibitors or compounds was added to each well. Cells are incubated for 48 h at 37° C. The cells were labeled with BrdU for 4 h at 37° C. The labeling medium was removed and in one step, the cells were fixed and the DNA was denatured (30 min at RT). Anti-BrdU-POD antibody was added to bind to the BrdU incorporated in newly synthesized cellular DNA (60-90 min at RT). The cells were washed 3× with washing buffer, substrate (100 μL) was added and the cells were incubated for 10 min at RT. The substrate reaction was stopped by adding 25 μL of 1M H2SO4. The amount of BrdU incorporated was quantified by measuring the absorbance at 450 nm using ELISA reader. IC50's were calculated using GraFit (Sigma).

Row | Compound | IC50
16 | CCOC(=O)c1cc(-c2csc(CS(=O)(=O)c3ccccc3)n2)c(=O)[nH]c1C(C)C [Example 12, Ethyl 2-isopropyl-6-oxo-5-{2-[(phenylsulfonyl)methyl](1,3-thiazol-4-yl)}-1,6-dihydro-3-pyridinecarboxylate] | < 1 µM
17 | CCOC(=O)c1cc(-c2csc(CS(=O)(=O)c3cccs3)n2)c(=O)[nH]c1C [Example 24, Ethyl 2-methyl-6-oxo-5-{2-[(2-thienylsulfonyl)methyl](1,3-thiazol-4-yl)}-1,6-dihydro-3-pyridinecarboxylate] | < 1 µM
18 | CCOC(=O)c1cc(-c2csc(CS(=O)(=O)c3ccccc3)n2)c(=O)[nH]c1CC [Example 3, Ethyl 2-ethyl-6-oxo-5-{2-[(phenylsulfonyl)methyl](1,3-thiazol-4-yl)}-1,6-dihydro-3-pyridinecarboxylate] | < 1 µM
19 | CCOC(=O)c1cc(-c2csc(CS(=O)(=O)c3cccs3)n2)c(=O)[nH]c1CC [Example 2, Ethyl 2-ethyl-6-oxo-5-{2-[(thienylsulfonyl)methyl](1,3-thiazol-4-yl)}-1,6-dihydro-3-pyridinecarboxylate] | < 1 µM
20 | CCOC(=O)c1cc(-c2csc(-c3ccnc(NCc4cccnc4)c3)n2)c(=O)[nH]c1C [Example 47, Ethyl 2-methyl-6-oxo-5-(2-(2-((3-pyridinylmethyl)amino)-4-pyridinyl)-1,3-thiazol-4-yl)-1,6-dihydro-3-pyridin carboxylate] | < 1 µM
21 | CCOC(=O)c1cc(-c2csc(-c3ccncc3)n2)c(=O)[nH]c1CC [Example 1, Ethyl 2-ethyl-6-oxo-5-(2-(4-pyridinyl)-1,3-thiazol-4-yl)-1,6-dihydro-3-pyridinecarboxylate] | < 1 µM
22 | CCOC(=O)c1cc(-c2csc(-c3ccnc(NCCNC(C)C)c3)n2)c(=O)[nH]c1C [Example 50, Ethyl 2-methyl-5-(2-(2-((2-((1-methylethyl)amino)ethyl)amino)-4-pyridinyl)-1,3-thiazol-4-yl)-6-oxo-1,6-dihydro-3-pyridinecarboxylate] | < 1 µM
